Experimental findings from patent US5939437A, “CCK and gastrin receptor ligands” (James Black Foundation Limited, priority 1994, dated 1999) are described below.

In one experiment the target is T1, CCKB (Mus musculus, UniProt P56481).
T1 construct: The cortex was dissected, weighed and homogenised in 40 ml ice-cold buffer; from tissue; host or cells: cerebral cortex membranes of male CD1 mice (Charles River)
T1 sequence (P56481 1-453): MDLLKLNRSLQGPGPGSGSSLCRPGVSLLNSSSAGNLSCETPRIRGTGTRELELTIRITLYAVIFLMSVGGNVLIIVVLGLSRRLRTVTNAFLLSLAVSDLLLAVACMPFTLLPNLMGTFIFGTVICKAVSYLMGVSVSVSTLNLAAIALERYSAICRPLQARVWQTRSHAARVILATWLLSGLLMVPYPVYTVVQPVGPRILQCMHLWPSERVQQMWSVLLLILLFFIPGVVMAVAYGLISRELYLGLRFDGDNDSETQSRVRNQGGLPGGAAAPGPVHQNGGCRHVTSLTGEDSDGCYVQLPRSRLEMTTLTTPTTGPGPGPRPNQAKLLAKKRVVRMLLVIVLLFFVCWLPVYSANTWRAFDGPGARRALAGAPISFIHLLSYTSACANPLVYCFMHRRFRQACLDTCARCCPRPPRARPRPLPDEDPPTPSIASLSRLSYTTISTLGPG
In words: radioligand binding assay at the CCKB (CCK8 [sic]) receptor in mouse cortical membranes. As to conditions: [125I]-CCK8S 200 pM, 150 min at 21±3° C.; for Ki: read-out: CCKB pKi (converted). Here is the method:
The compounds of the examples were tested for binding at the CCK8 receptor in mouse cortical membranes by means of a radioligand binding assay. The procedure was as follows: The whole brains from male mice (CD1 22-25 g; Charles River) were removed and placed in ice-cold buffer (pH7.2@21±3° C.) of the following composition (mM); 10 HEPES, 130 NaCl, 4.7 KCl, 5 MgCl2, 1 EDTA and containing 0.25 g.1^-1 bacitracin. The cortex was dissected, weighed and homogenised in 40 ml ice-cold buffer using a Teflon-in-glass homogeniser. The homogenate was centrifuged at 39,800 g for 20 min at 4° C., the supernatant discarded and the pellet resuspended by homogenisation in fresh buffer. The homogenate was recentrifuged (39,800 g; 20 min@4° C.) and the final pellet was resuspended in HEPES buffer to give a tissue concentration of 2 mg.ml^-1 (original wet weight). The membranes ([…]) were incubated for 150 min at 21±3° C. in a final volume of 0.5 ml with HEPES buffer containing [^25 I]-CCK8S (0.05 ml; 200 pM NEN 2200 Ci.mmol^-1) and competing compound. Total and non-specific binding of [^125 I]-CCK8S were defined using 0.05 ml of buffer and 0.05 ml of […] L-365,260, respectively. The assay was terminated by rapid filtration through pre-soaked Whatman GF/B 35 filters using a Brandell Cell harvester. The filters were washed (3×3 ml) with ice-cold 5 mM Tris-HCl (pH7.4@4° C.) and bound radioactivity determined by counting (1 min.) in a gamma-counter.

A further experiment has as its target T2, Gastrin (Rattus norvegicus, UniProt P30553).
T2 construct: The stomach was excised and flushed with ca. 1 ml unbuffered physiological saline solution; from tissue; host or cells: isolated whole stomach of immature rats (33-50 g, ca. 21 days old)
T2 sequence (P30553 1-452): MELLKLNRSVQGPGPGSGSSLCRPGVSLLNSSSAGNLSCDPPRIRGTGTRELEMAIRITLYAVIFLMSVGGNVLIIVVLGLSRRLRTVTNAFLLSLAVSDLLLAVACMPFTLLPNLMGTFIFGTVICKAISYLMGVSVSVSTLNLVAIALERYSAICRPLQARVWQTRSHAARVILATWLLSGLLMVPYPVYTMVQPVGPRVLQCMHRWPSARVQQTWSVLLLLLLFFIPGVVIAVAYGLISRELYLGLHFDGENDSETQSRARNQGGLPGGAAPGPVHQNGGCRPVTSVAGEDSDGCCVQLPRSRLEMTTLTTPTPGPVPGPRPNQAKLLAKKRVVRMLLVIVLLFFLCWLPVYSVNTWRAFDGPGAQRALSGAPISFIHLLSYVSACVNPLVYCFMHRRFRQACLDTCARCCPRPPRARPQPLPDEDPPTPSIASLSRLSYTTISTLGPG
In words: gastrin antagonist activity in an immature rat stomach assay (pentagastrin-stimulated acid secretion, isolated stomach). The following applies: cumulative pentagastrin dose-response curves, 60 min after drug; for Kb: read-out: Gastrin pKB (converted). As to the method: The compounds of the examples were also tested for gastrin antagonist activity in an immature rat stomach assay. The procedure was follows:
The oesophagus of immature rats (33-50 g, ca. 21 days old) was ligated at the level of the cardiac sphincter and the duodenal sphincter was cannulated. The stomach was excised and flushed with ca. 1 ml unbuffered physiological saline solution. The fundus was punctured and cannulated. A further 4-5 ml of unbuffered solution was flushed through the stomach to ensure the preparation was not leaking. The stomach was lowered into a jacketed organ bath containing 40 ml of buffered solution containing 3×10^-8 M5methylfurmethide, maintained at 37° and gassed vigorously with 95% O2 /5% CO2. The stomach was continuously perfused at a rate of 1 ml min^-1 with unbuffered solution gassed with 100% O2 with the perfusate passing over an internally referenced pH-electrode fixed 12 cm above the stomach.
After 120 min of stabilisation the drugs were added directly to the serosal solution in the organ bath and after a further 60 min cumulative pentagastrin dose-response curves were started. Changes in acid secretion were monitored and the curves analysed according to Black et. al., Br. J. Pharmacol., 1985, 86, 581.

Another experiment addresses T3, CCKA (Cavia porcellus, UniProt Q63931).
T3 construct: The pancreatata were homogenised in 40 ml ice-cold HEPES buffer; from tissue; host or cells: pancreas membranes of male Dunkin Hartley guinea-pigs
T3 sequence (Q63931 1-430): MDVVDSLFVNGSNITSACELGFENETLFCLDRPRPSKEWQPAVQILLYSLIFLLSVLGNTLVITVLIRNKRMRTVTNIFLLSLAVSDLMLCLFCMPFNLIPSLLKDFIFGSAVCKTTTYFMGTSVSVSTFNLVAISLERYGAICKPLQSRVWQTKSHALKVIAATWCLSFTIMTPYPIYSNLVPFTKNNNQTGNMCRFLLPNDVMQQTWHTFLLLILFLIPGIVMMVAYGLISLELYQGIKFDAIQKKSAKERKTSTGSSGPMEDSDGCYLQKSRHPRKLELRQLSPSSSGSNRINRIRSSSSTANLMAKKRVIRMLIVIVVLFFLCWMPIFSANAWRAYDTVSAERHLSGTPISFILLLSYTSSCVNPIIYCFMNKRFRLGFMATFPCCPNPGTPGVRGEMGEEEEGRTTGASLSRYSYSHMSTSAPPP
Nature of the experiment: CCKA binding assay (guinea-pig pancreas membranes). The following applies: [125I]-CCK8(S) 200 pM, 0.375 μM PD134,308 present, 150 minutes at 21±3° C.; for Ki: read-out: CCKA pKi (converted). As to the method: The compounds of the examples were also tested in a CCKA binding assay as follows:
The pancreatata were removed from male guinea-pigs (200-300 g; Dunkin Hartley) and placed in ice-cold HEPES buffer (pH 7.2@21 ±3° C.). The pancreatata were homogenised in 40 ml ice-cold HEPES buffer using a polytron (Brinkman, PT10, setting 10) 4×1 second. The homogenate was centrifuged at 39,800 g for 15 min at 4° C. The supernatant was discarded and the pellet re-suspended using a Teflon-in-glass homogeniser in 20 volumes of fresh buffer and re-centrifuged as above. The final pellet was re-suspended using a Teflon-in-glass homogeniser to a tissue concentration of 1 mg.ml^-1 (original wet weight), and filtered through 500 μm pore-size Nytex mesh.
The membranes (400 μl; containing 0.375 μM PD134,308) are incubated for 150 minutes at 21±3° C. in a final volume of 0.5 ml with HEPES buffer containing [^125 I]-CCK8 (S) (50 μl; 200 pM) and competing compound. Total and non-specific binding of [^125 I]-CCK^8 (S) are defined using 50 μl of buffer and 50 μl of 100 nM L-364,718respectively. The assay is terminated by rapid filtration through pre-soaked Whatman GF/B filters using a Brandell Cell Harvester. The filters were washed (3×3 ml) with ice-cold 50 mM Tris HCl (pH 7.4 at 4° C. and bound radioactivity is determined by counting (1 min) in a gamma counter.

The structures appear in SMILES notation.

With `O=C(O)c1cc(NC(=O)[C@H](Cc2ccccc2)NC(=O)c2c(F)ccc(F)c2C(=O)NCC23CC4CC(CC(C4)C2)C3)cc(C(=O)O)c1` [Example 22, 1-(1S-(3,5-dicarboxyphenylamino-carbonyl)-2-phenylethylaminocarbonyl)-2-(1-adamantanemethyl-aminocarbonyl)-3,6-difluorobenzene], on CCKB, the “CCKB pKi” value was determined as 7.3. For the same molecule, the “Gastrin pKB” value at Gastrin amounted to 7.5.

On to `CN(C)c1ccc(C(=O)N[C@@H](Cc2ccccc2)C(=O)Nc2cc(C(=O)O)cc(C(=O)O)c2)c(C(=O)NCC23CC4CC(CC(C4)C2)C3)c1` [Example 25, 1-(1S-(3,5-dicarboxyphenylamino-carbonyl)-2-phenylethylaminocarbonyl)-2-(l-adamantanemethyl-aminocarbonyl)-4-dimethylaminobenzene], for which the Ki on CCKB was 1.58 nM. The Kb on Gastrin is 2.51 nM.

In the case of `COc1ccc(C(=O)N[C@@H](Cc2ccccc2F)C(=O)Nc2cc(C(=O)O)cc(C(=O)O)c2)c(C(=O)NCC23CC4CC(CC(C4)C2)C3)c1` [Example 28, 1-(1S-(3,5-dicarboxyphenylamino-carbonyl)-2-(2-fluorophenyl)ethylaminocarbonyl)-2-(1-adamantane-methylaminocarbonyl)-4-methoxybenzene], the Ki on CCKB is 15.8 nM. The Kb at Gastrin was 12.6 nM.

`COc1ccc(C(=O)N[C@@H](Cc2ccccc2)C(=O)Nc2cc(C(=O)O)cc(C(=O)O)c2)c(C(=O)NCC23CC4CC(CC(C4)C2)C3)c1` [Example 18, 1-(1S-(3,5-dicarboxyphenylamino-carbonyl)-2-phenylethylaminocarbonyl)-2-(1-adamantanemethyl-aminocarbonyl)-4-methoxybenzene]: the Ki on CCKB was 25.1 nM. Further, at Gastrin, the Kb was 31.6 nM.

As for `O=C(O)c1cc(NC(=O)[C@H](Cc2ccccc2)N2Cc3cccc(C(=O)NCC45CC6CC(CC(C6)C4)C5)c3C2=O)cc(C(=O)O)c1` [Example 27, 7-(1-adamantanemethylaminocarbonyl)-2-(1S-(3,5-dicarboxyphenylaminocarbonyl)-2-phenylethyl) indol-1-one], the results for the Ki at CCKB and at CCKA were 126 nM and 3.16 µM, respectively.

In the case of `O=C(O)c1cc(NC(=O)[C@H](Cc2ccccc2)NC(=O)c2ccccc2C(=O)NCc2cccc3ccccc23)cc(C(=O)O)c1` [Example 5, (1R-(3,5-dicarboxyphenylaminocarbonyl)-2-phenylethylaminocarbonyl)-2-(1-naphthalenemethylaminocarbonyl)-benzene], at CCKB, the “CCKB pKi” value was found to be 6.3. For the same molecule, at CCKA, the “CCKA pKi” value amounted to 7.0.

In the case of `O=C(O)c1cc(NC(=O)[C@H](Cc2ccccc2)NC(=O)c2cc(O)ccc2C(=O)NCC23CC4CC(CC(C4)C2)C3)cc(C(=O)O)c1` [Example 23, 1-(1S-(3,5-dicarboxyphenylamino-carbonyl)-2-phenylethylaminocarbonyl)-2-(1-adamantanemethylamino-carbonyl)-5-hydroxybenzene], at CCKB, the Ki is 316 nM. Besides, the Kb on Gastrin was 126 nM.

Take `O=C(Cc1ccccc1C(=O)N[C@@H](Cc1ccccc1)C(=O)Nc1cc(C(=O)O)cc(C(=O)O)c1)NCC12CC3CC(CC(C3)C1)C2` [Example 9, (1S-(3,5-dicarboxyphenylaminocarbonyl)-2-phenylethylaminocarbonyl)-2-(1-adamantanemethylaminocarbonyl-methyl)benzene]: the Ki at CCKB is 251 nM; at CCKA, 3.16 µM.

`CNc1ccc(C(=O)N[C@@H](Cc2ccccc2)C(=O)Nc2cc(C(=O)O)cc(C(=O)O)c2)c(C(=O)NCC23CC4CC(CC(C4)C2)C3)c1` [Example 24, 1-(1S-(3,5-dicarboxyphenylamino-carbonyl)-2-phenylethylaminocarbonyl)-2-(1-adamantanemethyl-aminocarbonyl)-4-methylaminobenzene]: the Ki on CCKB is 7.94 nM. At Gastrin, the Kb is 5.01 nM.

As for `COc1ccc(C(=O)NCC23CC4CC(CC(C4)C2)C3)c(C(=O)N[C@@H](Cc2ccccc2F)C(=O)Nc2cc(C(=O)O)cc(C(=O)O)c2)c1` [Example 29, 1-(1S-(3,5-dicarboxyphenylamino-carbonyl)-2-(2-fluorophenyl)ethylaminocarbonyl)-2-(1-adamantane-methylaminocarbonyl)-5-methoxybenzene], the Ki at CCKB is 15.8 nM. Besides, the Kb at Gastrin is 1580 nM.
